Measured values taken from US8791155B2, “Chroman derivatives” (Edison Pharmaceuticals, Inc., priority 2003, dated 2014).

What was measured:
[1] = test system: dopaminergic neuronal cell line; test: High glutamate-induced oxidative stress assay (HGOS); type: cell-based; conditions: Mus musculus; 30 mM glutamate, 16 hrs; read-out: EC50, protection against HGOS cell injury and cell death
Description: Protection against redox stress can be evaluated in cell culture using high glutamate induced oxidative stress (HGOS) in mouse dopaminergic cell lines. The cytotoxic effect of glutamate is not due to excitotoxicity, as this cell line is devoid of inotropic glutamate receptors. Rather, the glutamate-induced toxicity of dopaminergic cells is associated with an inhibition of cystine transport which subsequently leads to depletion of intracellular glutathione (GSH) levels (Murphy T. H., et al. Neuron 2, 1547-1558, 1989), activation of neuronal 12-lipoxygenase (Li, Y. et al., Neuron 19, 453-463, 1997), increased ROS production (Tan S. et al., J. Cell Biol. 141, 1423-1432, 1998) and elevated intracellular Cat^2+ (Li, Y. et al., see supra). Some molecules were measured for their ability to protect cells against glutamate-induced stress and the assay is detailed in Examples.
This procedure was used to induce high glutamate-induced oxidative stress (HGOS) in a dopaminergic neuronal cell line. Using this assay the potency and efficacy of test articles against HGOS neuronal cell injury and cell death was established in a high throughput manner.
• Dopaminergic neuronal cell lines • DMEM-No Glucose (Life Technologies Cat #11966-025) • L-glutamine (Life Technologies Cat #25030-081) • L-glutamic acid, monosodium salt (Sigma Cat #G5889) • D-glucose (Sigma Cat #G-6151) • 10×HBSS buffer (pH 7.4) (950 ml Pyrogen-free water, 2.44 g/L MgCl2.6H20, 3.73 g/L KCl, 59.58 g/L Hepes, 58.44 g/L NaCl, 1.36 g/L KH2PO4, 1.91 g/L CaCl2.2H2O and pH to […] with HCl) • Cell Tracker Green fluorescent dye (Molecular Probes, Cat #2925). Prepare a 5NM solution in pre-warmed HBSS just prior to use. • Sterile 96-well plates precoated with poly-D-lysine (Corning Catalog #3665) • 96-well deep well mother plate, DyNA Block 1000 (VWR Catalog #40002-008) Neuronal Cells
The cells were seeded into 96-well plates at a density of 2000 per well and left to grow for 72 hours in a 33° C. incubator with 5% CO2 in air atmosphere. The passage number of the cells for each assay experiment were no later than p11 in order to minimize experimental variation.
All compounds were dissolved in DMEM-No Glu containing 1 mM glucose, 30 mM glutamate and 1× Pen/Strep. DMEM-No Glu with 1 mM glucose and 1× P/S was used as the negative control, DMEM-No Glucose with 1 mM glucose, […] glutamate was used as a positive control and 100 NM Glutathione was added to the positive control as a standard. All of the procedures for this involving the making and dilution of compounds were performed using aseptic conditions and with minimal light.
The plates were removed from the incubator and examined under the microscope for morphological appearance and density. Using an aseptic technique and an 8-channel aspirator the media was carefully removed from the cells and replaced with 200 μI of 1×HBSS. This was done as quickly as possible to prevent the cells drying out. The plates were then placed in the humidified 37° C. incubators of the Biomek 2000 Side Loader. Four plates were washed at a time so as to minimize the time that the cells were sitting in 1×HBSS prior to addition of the compound test solution. Experimental Setup
The Beckman Biomek workstations were used to load the compounds and controls from the mother plates onto the cell plates that were prewashed with HBSS under sterile conditions. The plates were incubated in the upper HTS incubator at 37° C. in 5% CO2 for exactly 16 hrs. The following day, using the Beckman Biomek workstations, the plates were removed from the incubator. Using Cell Tracker Addition, the compounds were removed from the plates, washed once with […] of pre-warmed 1×HBSS and then 100 μL of 5 μM Cell Tracker Green was added to each well. The plates were incubated at 37° C. for 30 min to allow the dye to enter the cell and be cleaved by the esterases. […]

[2] = target: T1, human recombinant 5-lipoxygenase (Homo sapiens, UniProt P09917); test: 5-Lipoxygenase enzyme assay; type: biochemical; conditions: 70 μM arachidonic acid, pH 7.4, 10 minute incubation; read-out: IC50, inhibition of 5-Lipoxygenase
T1 construct: purchased Cayman 60402
T1 sequence (P09917 1-674): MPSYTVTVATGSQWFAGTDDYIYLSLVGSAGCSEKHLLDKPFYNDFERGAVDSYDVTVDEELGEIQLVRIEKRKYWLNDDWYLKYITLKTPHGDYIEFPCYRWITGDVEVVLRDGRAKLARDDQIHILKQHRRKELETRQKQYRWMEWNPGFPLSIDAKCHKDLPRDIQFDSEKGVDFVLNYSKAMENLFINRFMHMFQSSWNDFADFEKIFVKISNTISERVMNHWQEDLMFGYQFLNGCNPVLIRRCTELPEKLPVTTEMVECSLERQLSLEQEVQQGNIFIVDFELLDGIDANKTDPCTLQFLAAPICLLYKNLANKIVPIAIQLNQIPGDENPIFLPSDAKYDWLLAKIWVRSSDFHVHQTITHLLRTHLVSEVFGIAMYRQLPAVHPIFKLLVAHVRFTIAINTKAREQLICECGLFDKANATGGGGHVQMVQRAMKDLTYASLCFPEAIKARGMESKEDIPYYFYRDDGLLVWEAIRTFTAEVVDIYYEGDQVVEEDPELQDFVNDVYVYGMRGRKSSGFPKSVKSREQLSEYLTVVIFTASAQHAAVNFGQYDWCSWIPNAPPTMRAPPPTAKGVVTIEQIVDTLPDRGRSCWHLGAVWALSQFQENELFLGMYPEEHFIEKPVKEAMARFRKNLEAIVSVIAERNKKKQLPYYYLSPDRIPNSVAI
Description: In vitro evaluation of the ability of a composition to inhibit the enzymes 5-lipoxygenase, 15-lipoxygenase, or 12/15 lipoxygenase as described in Walidge, N. B. et al Anal. Biochem., 231: 354-358 (1995) using a high throughput colorimetric method; as well as in vitro evaluation of inhibiting LTB4 is described in Examples.
This procedure was used for measuring the enzymatic activity of human recombinant 5-lipoxygenase using a colorimetric method based on the ferric oxidation of xylenol orange.
• 96 well flat bottom microfilter plates (VWR, Catalog #62402-933 9295) • Lipoxygenase screening assay buffer (Cayman, Catalog #760710) • Human recombinant 5-lipoxygenase (Cayman, Catalog #60402) • Arachidonic Acid (Sigma, Catalog #A3555) • Xylenol orange tetrasodium salt (Aldrich, Catalog #227854) • Iron (II) sulfate heptahydrate (Sigma, Catalog #F7002) • Sulfuric acid (95-98%) [18M]—Methanol Procedure
Human recombinant 5-lipoxygenase (Cayman Cat #60402) was used in this assay. The test compound and/or vehicle was added to 0.51-1 5-lipoxygenase in 50 mM Tris-HCl buffer, pH 7.4. The reaction was initiated by addition of 70 μM arachidonic acid in Tris-HCl buffer, pH 7.4, and terminated after a 10 minute incubation at room temperature by addition of FOX reagent (25 mM sulphuric acid, 100 μM xylenol orange, 100 μM iron (II) sulphate, methanol:water 9:1). The yellow color of acidified xylenol orange was converted to a blue color by the lipid hydroperoxide-mediated oxidation of Fe 2+ ions and the interaction of the resulting Fe 3+ ions with the dye. The complex was allowed to form during a 1 hour incubation at room temperature with shaking. Absorbance of the Fe 3+ complex was then measured at […] using a spectrophotometer.
Negative controls contained enzyme during the incubation step but substrate was not added until after the FOX reagent.
Compounds were screened at 5 concentrations in triplicate starting at 10 μM

IC50 [2] [µM]	Structure (SMILES)	EC50 [1] [µM]
	CCCC1=NN(C)C(=O)C1=Cc1c(O)c(C)c(C)c2c1CCC(C)(C)O2 [4-(6-Hydroxy-2,2,7,8-tetramethyl-chroman-5-ylmethylene)-2-methyl-5-propyl-2,4-dihydro-pyrazol-3-one]	< 5
< 1	Cc1c(O)cc(-c2c(O)c(C)c(C)c3c2CCC(C)(C)O3)c(O)c1C [5-(6-Hydroxy-2,2,7,8-tetramethyl-chroman-5-yl)-2,3-dimethyl-benzene-1,4-diol]	
	Cc1c(C)c2c(c(-c3ccc(S(C)(=O)=O)cc3)c1O)CCC(C)(C)O2 [5-(4-Methanesulfonyl-phenyl)-2,2,7,8-tetramethyl-chroman-6-ol]	< 5
	COCOc1cc2c(c(C)c1C)OC(C)(CCC=C1SC(=O)NC1=O)CC2 (stereo not shown) [5-[3-(6-Methoxymethoxy-2,7,8-trimethyl-chroman-2-yl)-propylidene]-thiazolidine-2,4-dione]	< 5
< 1	Cc1c(C)c2c(c(-c3ccc(C(C)(C)C)cc3)c1O)CCC(C)(C)O2 [5-(4-tert-Butyl-phenyl)-2,2,7,8-tetramethyl-chroman-6-ol]	
	Cc1c(C)c2c(c(-c3ccncc3)c1O)CCC(C)(C)O2 [2,2,7,8-Tetramethyl-5-pyridin-4-yl-chroman-6-ol]	< 5
	Cc1c(C)c2c(c(-c3ccccc3)c1O)CCC(C)(C)O2 [2,2,7,8-Tetramethyl-5-phenyl-chroman-6-ol]	< 5
< 1	Cc1c(C)c2c(c(-c3ccc(Cl)cc3)c1O)CCC(C)(C)O2 [5-(4-Chloro-phenyl)-2,2,7,8-tetramethyl-chroman-6-ol]	
< 1	COc1cc(-c2c(O)c(C)c(C)c3c2CCC(C)(C)O3)cc(OC)c1OC [2,2,7,8-Tetramethyl-5-(3,4,5-trimethoxy-phenyl)-chroman-6-ol]	
	Cc1c(C)c2c(c(-c3ccc(N(C)C)cc3)c1O)CCC(C)(C)O2 [5-(4-Dimethylamino-phenyl)-2,2,7,8-tetramethyl-chroman-6-ol]	< 5
